# Publication PMC7460240 (Biomedicines, 2020)
# Structures can show the parent of a compound that is named as a salt.
# Legend:
# H295R cells [1] = assay: Cytotoxicity assay (neutral red, 48 h) on H295R cells; assay type: cell-based, human
# Experimental: (§1) Cytotoxicity assays on H295R cells were carried out as previously described. Briefly, H295R cells were grown in 96-well plates to achieve 70% to 80% confluence. […] An amount of 100 µL of medium containing increasing concentrations of dxr was then added. […] After 48 h, cells were incubated 3 h at 37 °C with neutral red (NR) solution following the manufacturer’s protocol. Absorbance was measured in a microplate reader (Multiskan Go Microplate Spectrophotometer from Thermo Fisher Scientific, Illkirch, France).
# H295R cells [2] = assay: cells; conditions: Homo sapiens, NCI-H295R, 168 h, read-out: Dxr-IC50 (proliferation), astemizole 0 µM
# Ptch1 [3] = biological target: T1, Ptch1 (Homo sapiens, UniProt Q13635); assay: Screening on the resistance to doxorubicin of yeast expressing human Ptch1 (growth, OD600); assay type: cell-based; design: expressed in transfected cells; host or cells: Saccharomyces cerevisiae strain K699; conditions: 10 µM compound; for effect on resistance/growth of hPtch1-expressing yeast in the presence of dxr: 10 µM dxr, 18 °C, about 72 h
# T1 sequence (Q13635 1-1447): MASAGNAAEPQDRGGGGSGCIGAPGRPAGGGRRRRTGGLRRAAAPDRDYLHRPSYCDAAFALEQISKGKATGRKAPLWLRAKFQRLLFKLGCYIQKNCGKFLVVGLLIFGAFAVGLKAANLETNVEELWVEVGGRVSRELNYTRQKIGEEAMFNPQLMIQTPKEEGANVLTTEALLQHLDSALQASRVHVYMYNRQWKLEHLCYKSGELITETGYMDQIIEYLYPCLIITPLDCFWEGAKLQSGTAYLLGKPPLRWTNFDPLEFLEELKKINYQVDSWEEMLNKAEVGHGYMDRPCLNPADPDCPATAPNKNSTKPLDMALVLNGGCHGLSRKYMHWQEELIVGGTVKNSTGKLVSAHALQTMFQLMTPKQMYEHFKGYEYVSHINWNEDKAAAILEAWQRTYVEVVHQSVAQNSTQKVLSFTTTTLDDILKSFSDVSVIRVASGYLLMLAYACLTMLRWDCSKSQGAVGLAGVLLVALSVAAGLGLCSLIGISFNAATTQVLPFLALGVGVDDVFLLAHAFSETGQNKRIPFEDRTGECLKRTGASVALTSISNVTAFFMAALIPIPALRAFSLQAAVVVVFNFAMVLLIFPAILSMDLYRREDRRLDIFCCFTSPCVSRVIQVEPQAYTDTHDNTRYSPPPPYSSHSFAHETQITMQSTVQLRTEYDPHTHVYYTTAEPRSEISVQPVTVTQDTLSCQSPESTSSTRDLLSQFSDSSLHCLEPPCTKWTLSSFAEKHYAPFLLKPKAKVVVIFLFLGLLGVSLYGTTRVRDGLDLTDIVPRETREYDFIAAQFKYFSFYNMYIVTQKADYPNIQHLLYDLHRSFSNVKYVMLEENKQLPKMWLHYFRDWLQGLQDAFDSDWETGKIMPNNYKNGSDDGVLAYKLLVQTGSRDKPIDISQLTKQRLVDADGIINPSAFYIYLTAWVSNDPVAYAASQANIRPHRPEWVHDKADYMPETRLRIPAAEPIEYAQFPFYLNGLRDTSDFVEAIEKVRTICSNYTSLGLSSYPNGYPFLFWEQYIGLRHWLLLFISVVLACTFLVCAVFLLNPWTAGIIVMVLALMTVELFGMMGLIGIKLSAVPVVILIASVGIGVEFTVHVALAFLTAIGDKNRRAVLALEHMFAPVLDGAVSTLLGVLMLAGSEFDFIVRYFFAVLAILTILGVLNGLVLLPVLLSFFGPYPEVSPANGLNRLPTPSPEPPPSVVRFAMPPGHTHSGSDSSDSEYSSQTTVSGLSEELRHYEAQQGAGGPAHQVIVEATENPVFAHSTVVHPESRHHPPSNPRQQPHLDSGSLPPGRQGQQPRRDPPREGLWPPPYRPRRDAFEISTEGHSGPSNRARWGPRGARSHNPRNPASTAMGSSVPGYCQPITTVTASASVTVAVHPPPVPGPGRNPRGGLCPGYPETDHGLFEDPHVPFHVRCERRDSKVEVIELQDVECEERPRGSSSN
# Experimental: The screening of molecules on yeast was carried out as described in [18]. Briefly, S. cerevisiae expressing human Ptch1 were grown at 30 °C up to an OD600 between 1 and 2in minimal medium containing 2% of glucose and amino acid cocktail without leucine, and then diluted in rich medium containing 2% glucose in 96-well plates. An amount of 10 µM of molecules to be tested was added in 8 wells (10 molecules can be tested on one plate) and 10 µM of dxr was added to half of the wells. Plates were incubated at 18 °C on a shaker at 1250 rpm (microtiter plate shaker SSL5 Stuart) and absorbance at 600 nm was recorded for about 72 h.
# Figure 1 P136 inhibits doxorubicin efflux activity of hPtch1 when expressed in yeast. (A) P136 inhibits the resistance of hPtch1-expressing yeast to doxorubicin. hPtch1-expressing yeast were grown in the presence of 10 µM of P136, P298 or P375, and in the presence or absence of 10 µM doxorubicin (dxr). DMSO was used as control. The growth of yeast was measured by absorbance at 600 nm. (B) P136 inhibits the efflux of doxorubicin of hPtch1-expressing yeast. hPtch1-expressing yeast and control yeast were incubated with dxr for 2 h and fixed for dxr loading control or resuspended in buffer containing DMSO or 10 μM P136 for 10 min, fixed and deposited on a coverslip for analysis by fluorescence microscopy. The dxr fluorescence of 100 yeast for each condition from 3 independent experiments was quantified using the ImageJ software. […] Significance is attained at p < 0.05 (*) (***: p < 0.0005, ****: p < 0.00005, ns: no significant difference).
# hPtch1 = biological target: T2, hPtch1 (Homo sapiens, UniProt Q13635); assay: Doxorubicin efflux measurement in hPtch1-expressing yeast (fluorescence microscopy); assay type: cell-based; conditions: 10 µM P136 in efflux buffer, 10 min, 2-deoxy-D-glucose
# T2 construct: expressed in transfected cells; host or cells: Saccharomyces cerevisiae strain K699
# T2 sequence (Q13635 1-1447): T1 sequence (Q13635 1-1447)
# Experimental: Efflux measurements were carried out as described in [19]. On yeast: hPtch1-expressing yeasts or control yeasts were grown to an OD600 of 5, centrifuged, washed with cold water and resuspended in HEPES–NaOH buffer (pH 7.0) containing 5 mM 2-deoxy-D-glucose and 10 µM dxr for 2 h at 4 °C. […] Yeasts were centrifuged, resuspended in 4% PFA and deposited on a coverslip with SlowFade Gold antifade reagent containing DAPI (Invitrogen).
# (§2) Images were acquired with a Zeiss Axioplan 2 fluorescence microscope coupled to a digital charge-coupled device camera using a 63X objective for yeast or a 40X /1.3 Plan NeoFluar objective for cells, and filters for Alexa 594 or FITC for dxr or Bo-chol analysis, respectively. Dxr or Bo-chol fluorescence was quantified using the ImageJ software. About 100 yeast/cells (from three wells) were scored per condition.
# Figure 1 P136 inhibits doxorubicin efflux activity of hPtch1 when expressed in yeast. […] The growth of yeast was measured by absorbance at 600 nm. (B) P136 inhibits the efflux of doxorubicin of hPtch1-expressing yeast. hPtch1-expressing yeast and control yeast were incubated with dxr for 2 h and fixed for dxr loading control or resuspended in buffer containing DMSO or 10 μM P136 for 10 min, fixed and deposited on a coverslip for analysis by fluorescence microscopy. […]
# [4] = Cytotoxicity assay (neutral red, 48 h) on H295R cells; assay type: cell-based, human; conditions: human, H295R cells at 80% confluence
# Experimental: as §1
# H295R cells [5] = assay: Synergy analysis of drug combination (Chou-Talalay) on H295R cells; assay type: cell-based, human; conditions: 48 h, dxr with 1 µM astemizole
# Experimental: Synergy analysis was performed using the Chou-Talalay method for drug combination as described in [21, 22]. […] Normalized isobolograms and Chou-Talalay’s plots (Fa-CI plot were Fa is the fraction affected and CI is the combination index) were created using the Compusyn Software (Version 1.0 downloaded from www.combosyn.com). These allow quantitative determination of drug interactions, where CI < 1 (below the diagonal), =1 (diagonal) and >1 (above the diagonal) indicate synergism, additive effect and antagonism, respectively. Dose-reduction index (DRI) is reported.
# caspase 3/7 activity = assay: Apoptosis measurement (Caspase-Glo 3/7) in H295R cells; assay type: cell-based, human; conditions: 48 h, 0.5 µM astemizole, no dxr
# Experimental: Quantification of caspase 3/7 activity was performed using the luminescent assay Caspase-Glo 3/7 (Promega, Charbonnières-les-Bains, France) and a luminometer (Glomax 96 Microplate Luminometer from Promega, Charbonnières-les-Bains, France) following the manufacturer’s protocol.
# H295R cells [6] = assay: Clone formation of H295R cells (14 days, crystal violet); assay type: cell-based, human; conditions: combination of dxr and astemizole
# Experimental: After 14 days, clones were stained with crystal violet and pictures were taken. Cells were then solubilized and absorbance was measured in a microplate reader at 550 nm (Multiskan Go Microplate Spectrophotometer, Thermo Scientific, Illkirch, France).
# H295R cells [7] = assay: Spheroid formation in 3D culture of H295R cells; assay type: cell-based, human; conditions: 14 days
# Experimental: H295R cells were cultured in DMEM/F-12, 2% NuSerum, 1% ITS Plus and penicillin/streptomycin supplemented with 20 µg/µL EGF and 20 µg/µL FGF. […] After 14 days, images of each well were taken using a cell imaging multi-mode reader (Cytation 5 from Bio Tek, Colmar, France). Then, 100 µL of the medium was removed from each well and 100 µL of Cell Titer Glow 3D reagent (Promega) was added. Spheroids were disrupted according to the protocol from the Cell Titer Glow 3D Viability Assay (Promega) and viability was measured in a microplate reader at 550 nm (Multiskan Go Microplate Spectrophotometer, Thermo Scientific).
# [8] = Distribution coefficient octanol/PBS pH 7.4; assay type: physicochemical; conditions: read-out: LogD7.4
# [9] = Solubility in aqueous buffer (PBS, pH 7.4); assay type: physicochemical
# [10] = Metabolic stability in rat liver microsomes; assay type: in vitro ADME; conditions: NADPH, read-out: RLM T1/2
# Experimental: (§3) Profiling and PK studies were performed by GalenAuxi Co (Oxford, UK) as previously described. […] Plasma samples (50 μL) were collected via the facial vein at 3, 10, 30, 60, 120, 240, 360 and 1440 min post-dose for the IV group, and at 10, 30, 60, 120, 240, 360, 480 and 1440 min post-dose for the PO group in K2EDTA-coated tubes, mixed gently and centrifuged at 2500 g for 15 min at 4 °C within 1 h after collection. For control animals, blood was collected by cardiac puncture. Plasma samples were prepared in acetonitrile for LC-MS/MS analysis. Peak areas were recorded and the concentrations of the test compound in the unknown plasma samples were determined using the respective calibration curve.
# (§4) We determined its lipophilicity described by the distribution constant LogD, its solubility, which is an important parameter since water is the solvent of choice for the liquid pharmaceutical formulation, its metabolic stability measured in the presence of rat and human microsomes and NADPH, and its ability to bind to proteins.
# [11] = Metabolic stability in human liver microsomes; assay type: in vitro ADME; conditions: NADPH, read-out: HLM T1/2
# Experimental: as §3, §4
# [12] = Human plasma protein binding; assay type: in vitro ADME; conditions: read-out: Ppb
# MeWo cells [13] = assay: Doxorubicin efflux in MeWo melanoma cells; assay type: cell-based, human; conditions: 30 µM astemizole, 30 min
# HaCaT keratinocytes = assay: Cell viability of HaCaT keratinocytes (48 h); assay type: cell-based, human; conditions: 10 µM astemizole
# H295R cells [14] = test system: H295R cells
# Ptch1 [15] = biological target: T1, Ptch1; assay: Doxorubicin efflux measurement in H295R cells; assay type: cell-based; design: endogenous in cells; host or cells: H295R; conditions: H295R cells loaded with 10 µM dxr 2 h, then 30 min efflux buffer with 10 µM astemizole
# Experimental: (§5) After 2 h, some coverslips were immediately fixed with PFA and mounted in SlowFade Gold antifade reagent containing DAPI (Invitrogen) for loading control.
# as §2
# (§6) After 2 h, 3 coverslips were fixed for dxr or Bo-chol loading control. […] Images were acquired using fluorescence microscopy and a 40x objective. Fluorescence was quantified using the Image J software for 100 cells per condition.
# Ptch1 [16] = biological target: T1, Ptch1; assay: BODIPY-cholesterol efflux measurement in H295R cells; assay type: cell-based; design: endogenous in cells; host or cells: H295R; conditions: H295R cells loaded with BODIPY-cholesterol 2 h, then 30 min efflux buffer with 10 µM astemizole
# Experimental: as §5, §2, §6
# [17] = Cell viability of MeWo melanoma cells (48 h); conditions: human, MeWo melanoma cells
# Experimental: (§7) Cell viability was measured after 48 hours
# (§8) doxorubicin (dxr) 2 μM. The graphs reported are representative of more than 3 independent
# (§9) Cell viability was measured after 48 hours treatment
# (§10) the mean ± SEM values of 3 independent experiments. Significance, calculated using ANOVA
# (§11) multiple comparison test and Bonferroni correction, was attained at p < 0.05 (*) (***: p < 0.0005).
# MeWo cells [18] = assay: Cell viability of MeWo melanoma cells (48 h); conditions: MeWo cells, 48 h, serial dilutions of astemizole with 2 µM dxr
# Experimental: as §7, §8, §9, §10, §11
structure (smiles),measurement,setting,value
"COc1cccc2c1C(=O)c1c(O)c3c(c(O)c1C2=O)C[C@@](O)(C(=O)CO)C[C@@H]3O[C@H]1C[C@H](N)[C@H](O)[C@H](C)O1 [Dxr, Doxorubicin hydrochloride]",IC50,"H295R cells [1]; Homo sapiens, NCI-H295R, read-out: Dxr-IC50 Without Astemizole, H295R cells, neutral red, mean ± SEM of 3 experiments",17.3 ± 3.6 µM
same,IC50,H295R cells [2],0.1 ± 0.02 µM
"CSc1ccc2c(c1)C(N1CCN(C)CC1)Cc1ccccc1S2 (stereo not drawn) [P375, methiothepin maleate]",effect on resistance/growth of hPtch1-expressing yeast in the presence of dxr,Ptch1 [3],significantly inhibited the resistance of hPtch1-expressing yeast to dxr
"COc1ccc(CCN2CCC(Nc3nc4ccccc4n3Cc3ccc(F)cc3)CC2)cc1 [astemizole, Astemizole]",effect on amount of dxr in hPtch1-expressing yeast (dxr efflux),hPtch1,increases the amount of dxr in hPtch1-expressing yeast significantly more than in control yeast
same,IC50 at 48 h,[4],~7 µM
same,increase of the efficacy of dxr combined with etoposide and mitotane (EDM) by astemizole,"H295R cells [1]; H295R cells, 1 µM astemizole, dxr + 10 µM etoposide + 10 µM mitotane",about eight times
same,increase of the cytotoxicity of dxr by astemizole,"H295R cells [1]; H295R cells, 1 µM astemizole, dxr alone",about 10 times
same,toxicity of astemizole by itself to ACC cells,"H295R cells [1]; H295R cells, 1 µM astemizole, no dxr",not toxic to ACC cells by itself
same,"cooperativity indices (CI), dxr and astemizole",H295R cells [5],below 1
same,effect of astemizole by itself on caspase 3/7 activity,caspase 3/7 activity,does not affect caspase 3/7 activity by itself
same,increase of the anti-clonogenic activity of dxr,H295R cells [6],increased four times
same,spheroid size with combination dxr + astemizole,H295R cells [7],significantly smaller
same,logD,[8],3.5
same,solubility,[9],22.1 µM
same,half-life,[10],31 min
same,half-life,[11],> 60 min
same,fraction unbound,[12],0.01
same,effect on dxr efflux from melanoma cells,MeWo cells [13],inhibits dxr efflux from melanoma cells
same,effect on keratinocyte viability,HaCaT keratinocytes,very slight effect on keratinocyte viability
same,effect of astemizole by itself on cell viability,"H295R cells [14]; 7 days, 0.5 µM astemizole, no dxr",does not affect cell viability by itself
same,effect of astemizole alone on proliferation,H295R cells [14]; serial dilution of astemizole for 7 days,inhibited their proliferation
same,dxr kept inside the cells,Ptch1 [15],about 73%
same,Bo-chol kept inside the cells,Ptch1 [16],about 95%
same,IC50 at 48 h,[17],~7 µM
same,effect on dxr cytotoxicity in melanoma cells,MeWo cells [18],increases dxr cytotoxicity
same,effect on resistance/growth of hPtch1-expressing yeast in the presence of dxr,Ptch1 [3],able to inhibit the growth of hPtch1-expressing yeast in the presence of dxr
same,effect on growth of hPtch1-expressing yeast in the absence of dxr,Ptch1 [3]; no dxr,without effects on the growth of hPtch1-expressing yeast in the absence of dxr
